Measured values from patent US4877782A, “Zinc ceftiofur complexes” (The Upjohn Company, priority 1988, dated 1989).
Where a name gives a salt, the structure may show the parent alone. Read-outs that look alike come from different tables or passages of the source.

What was measured:
[1] = test system: Salmonella typhimurium UC6164; assay: standard mouse challenge test against Salmonella typhimurium UC6164 (survival, ED50); format: in vivo; conditions: for ED50: mice, s.c., adjusted for drug potency, 95% confidence limits
Procedure: (§1) Each test compound was suspended or dissolved in sterile Vehicle 122 (0.025% carboxymethylcellulose in water) to a starting test concentration sufficient to provide in the first set of test animals a concentration of the test drug of 2 mg./kg. Portions of each such test drug formulation were diluted seriatim 50:50 v/v with water to reduce the concentration of the test drug in the test animal to 1 mg./kg., then to 0.5 mg./kg., to 0.25 mg./kg. and finally to 0.125 mg./kg. Sets of mice were injected with the test dilutions of the test drugs subcutaneously once or three times after injecting challenge doses lethal doses of one of the above-named bacterial organisms. The sets of animals were observed over six days to determine the number of surviving mice. The mortality ratios were noted and the ED50 values were calculated for each test drug by standard methods.

[2] = test system: Pasteurella multocida UC9581; assay: standard mouse challenge test against Pasteurella multocida UC9581 (survival, ED50); format: in vivo; conditions: for ED50: mice, s.c., adjusted for drug potency, 95% confidence limits
Procedure: as §1

[3] = dissolution rate in water; format: physicochemical; conditions: for percent in aqueous solution in 20 minutes: ceftiofur hydrochloride unmicronized
[4] = bulk density; format: physicochemical
[5] = dispersibility in water, organic solvents and vegetable oils; format: physicochemical; conditions: in words
[6] = 20 minutes, comparable equilibration conditions
[7] = zinc ceftiofur hydrochloride vs. non-complexed hydrochloride salt
[8] = mouse challenge, in words, from ED50 numbers of Table I

Molecule | ED50 ([1]; Salmonella enterica, sc, 144 h, UC6164, 579 LD50's, 1X treatment, read-out: ED50) [mg/kg] | ED50 ([1]; Salmonella enterica, sc, 144 h, UC6164, 1000 LD50's, 1X treatment, read-out: ED50) [mg/kg] | ED50 ([1]; Salmonella enterica, sc, 144 h, UC6164, 1000 LD50's, 3X treatments, read-out: ED50) [mg/kg] | ED50 ([2]; Pasteurella multocida, sc, 144 h, UC9581, 27 LD50's, 3X treatments, read-out: ED50) [mg/kg] | percent in aqueous solution in 20 minutes [3, 6] [%] | bulk density [4, 7] | distribution in pharmaceutical aqueous vehicle formulations [5] | ED50 ([1]; UC6164, 1000 LD50's, 1X treatment, 8640 min, listed as C--Na) [mg/kg/day] | solubility in water after 20 minutes ([3]; 20 minutes, comparable equilibration conditions, zinc complex unmicronized) [%] | dissolution rate curves (percent dissolved over time) ([3]; in words, compared with sodium ceftiofur and ceftiofur hydrochloride) | bulk density ([4]; zinc ceftiofur sodium complex from water vs. ceftiofur sodium salt) [g/mL] | ED50 ([1]; UC6164, 579 LD50's, 1X treatment, 8640 min) [mg/kg/day] | ED50 ([1]; UC6164, 1000 LD50's, 1X treatment, 8640 min) [mg/kg/day] | ED50 ([1]; UC6164, 1000 LD50's, 3X treatments, 8640 min) [mg/kg/day] | antibiotic protection [1, 8] | ED50 ([2]; UC9581, 27 LD50's, 3X treatments, 8640 min) [mg/kg/day] | ED50 ([2]; UC9581, 303 LD50's, 1X treatment, 8640 min) [mg/kg/day] | antibiotic protection [2, 8] | rate of dissolution ([3]; in words, compared to ceftiofur hydrochloride) | dispersibility in water and in common pharmaceutical organic solvents and vegetable oils ([5]; granular powders)
CO/N=C(\C(=O)N[C@@H]1C(=O)N2C(C(=O)O)=C(CSC(=O)c3ccco3)CS[C@H]12)c1csc(N)n1 [ceftiofur hydrochloride] | 1.7 | 1.3 | 2.3 | 0.3 | 74 | 0.15 g/mL | less well adapted for distribution in pharmaceutical aqueous vehicle formulations | – | – | – | – | – | – | – | – | – | – | – | – | –
CO/N=C(\C(=O)N[C@@H]1C(=O)N2C(C(=O)O)=C(CSC(=O)c3ccco3)CS[C@H]12)c1csc(N)n1 [ceftiofur sodium] | – | – | – | – | – | – | – | 1.1 | 100 | dissolves quite quickly in water | 0.11 | – | – | – | – | – | – | – | – | –
zinc ceftiofur hydrochloride complex [Compound II] | – | – | – | – | 48 | about 0.24 g./ml. | – | – | – | – | – | 1.0 | 3.3 | 2.1 | potent antibiotic protection | 0.4 | 0.3 | potent antibiotic protection | much slower compared to ceftiofur hydrochloride | readily dispersible in water
